Results published in US20090181972A1, “Novel Inhibitors of Cysteine Proteases, the Pharmaceutical Compositions Thereof and their Therapeutic Applications” (priority 2005, published 2009).

Tests used:
USP5 = molecular target: T1, USP5 (Homo sapiens, UniProt P45974); test: USP5 activity assay; format: biochemical; details: 400 nM Ub-AMC, 300 pM enzyme; pre-incubated 30 minutes at 25° C., 60 minutes at 37° C.; sigmoidal fit; read-out: USP 5
T1 sequence (P45974 1-858): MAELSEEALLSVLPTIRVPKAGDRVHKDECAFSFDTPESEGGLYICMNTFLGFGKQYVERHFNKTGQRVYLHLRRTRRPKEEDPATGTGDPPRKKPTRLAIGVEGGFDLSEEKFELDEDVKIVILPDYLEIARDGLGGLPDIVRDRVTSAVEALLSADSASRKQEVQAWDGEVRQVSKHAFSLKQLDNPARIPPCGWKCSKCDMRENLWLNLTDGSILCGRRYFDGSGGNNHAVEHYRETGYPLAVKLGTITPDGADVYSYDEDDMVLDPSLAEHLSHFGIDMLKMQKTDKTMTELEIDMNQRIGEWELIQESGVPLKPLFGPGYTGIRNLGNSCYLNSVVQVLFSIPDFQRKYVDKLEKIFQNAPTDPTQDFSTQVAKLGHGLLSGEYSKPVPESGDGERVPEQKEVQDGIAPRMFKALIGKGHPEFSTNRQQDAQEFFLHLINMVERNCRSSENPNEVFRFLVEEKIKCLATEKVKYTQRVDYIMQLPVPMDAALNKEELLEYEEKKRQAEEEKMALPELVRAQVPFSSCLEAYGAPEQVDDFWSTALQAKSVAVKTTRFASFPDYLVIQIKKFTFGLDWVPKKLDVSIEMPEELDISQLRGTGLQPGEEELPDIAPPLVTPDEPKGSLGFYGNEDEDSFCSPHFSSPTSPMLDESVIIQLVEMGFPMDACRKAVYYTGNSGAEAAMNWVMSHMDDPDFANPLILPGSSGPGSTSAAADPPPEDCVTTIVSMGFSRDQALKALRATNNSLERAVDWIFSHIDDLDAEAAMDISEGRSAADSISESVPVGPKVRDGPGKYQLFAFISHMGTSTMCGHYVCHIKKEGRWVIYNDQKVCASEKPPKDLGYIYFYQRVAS
Experimental: USP5 was diluted in USP buffer (50 mM Tris HCl; 0.5 mM EDTA; 5 mM DTT; 0.01% Triton X-100; Bovine Serum Albumin 0.05 mg.ml^−1 pH 7.6). Compounds stocks (100 mM) were stored at -20° C. in DMSO.
Reactions were performed as duplicates in Black LJL 96 well plates (HE microplates; Molecular Devices; 20 μl final reaction volume). The substrate concentration for USP5 was 400 nM Ub-AMC (Boston Biochem). The concentrations of the enzyme (USP5) in specificity assays was 300 pM. The concentrations were determined in order to perform specificity assays under initial velocities at fixed substrate concentration. Compounds were pre-incubated with enzymes for 30 minutes at 25° C. Reactions were initiated by addition of substrate to the plates containing the enzymes (+/− compounds) diluted in assay buffer. Reactions were incubated for 60 minutes at 37° C. Reactions were stopped by adding acetic acid (100 mM final). Readings were performed on a Pherastar Fluorescent Reader (BMG). λ Emission 380 nm; λ Excitation=460 nm. Data (mean values +/− standard deviation) were analyzed as % of control (no compound) and plotted as percentage versus the Log of the compound concentration using GraphPad (Prism). Data were fitted to a sigmoidal model (variable slope).

Cathepsin B = Cathepsin B (Homo sapiens, UniProt P07858); test: Cathepsin B activity assay; format: biochemical; details: 36 μM z-RR-AMC, 3.6 nM enzyme; pre-incubated 30 minutes at 25° C., 60 minutes at 37° C.; sigmoidal fit
Experimental: Cathepsin B was diluted in Cathepsin B buffer (20 mM Tris HCl pH 6.8; 1 mM EDTA; 1 mM DTT). Compounds stocks (100 mM) were stored at −20° C. in DMSO. Compounds were tested at the following final concentrations: 100 μM; 33.3 μM; 11.1 μM; 3.7 μM; 1.23 μM; 412 nM; 137 nM; 45.7 nM; 15.2 nM; 5 nM. Reactions were performed as duplicates in Black LJL 96 well plates (HE microplates; Molecular Devices; 20 μl final reaction volume). The substrate concentration for cathepsin B specificity assay was 36 μM (z-RR-AMC; Calbiochem). The concentration of the enzyme (Cathepsin B) in specificity assays was 3.6 nM. The concentrations were determined in order to perform specificity assays under initial velocities at fixed substrate concentration. Compounds were pre-incubated with enzymes for 30 minutes at 25° C. Reactions were initiated by addition of substrate to the plates containing the enzymes (+/− compounds) diluted in assay buffer. Reactions were incubated for 60 minutes at 37° C. Reactions were stopped by adding acetic acid (100 mM final). Readings were performed on a Pherastar Fluorescent Reader (BMG). δ Emission 380 nm; δ Excitation=460 nm. Data (mean values +/− standard deviation) were analyzed as % of control (no compound) and plotted as percentage versus the Log of the compound concentration using GraphPad (Prism). Data were fitted to a sigmoidal model (variable slope).

[1] = system: PC-3 prostate cancer cells; test: PC3 cell viability and proliferation assay (MTS); format: cell-based; details: 72 hours incubation, mean of three independent experiments, read-out: PC3 GI50 D3
Method in brief: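 PC-3 cells, seeded 24 h earlier, were treated in triplicate at 5 nM–10 μM with 0.5% final DMSO for 72 hours. Viability was read by 2-hour MTS conversion and absorbance at 492 nm. GI50 came from a sigmoidal variable-slope fit, averaged over three independent experiments.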

Row | IC50 (USP5) [µM] | IC50 (Cathepsin B) [µM] | GI50 [1] [µM] | Compound
1 | 4.8 |  |  | CCc1nnc2nc3c(nn12)C(=O)c1cc(OC)c(OC)cc1-3 [Example 5b/A, 1-Ethyl-6,7-dimethoxy-2,3,4,10,10a-pentaaza-cyclopenta[b]fluoren-9-one]
2 | 3.9 | 9.2 |  | CC(C)c1nnc2nc3c(nn12)C(=O)c1ccccc1-3 [Example 1l/A, 1-lsopropyl-2,3,4,10,10a-pentaaza-cyclopenta[b]fluoren-9-one]
3 | 1.54 | 17.4 | 0.994 | 6-(7)-Chloro-1-methyl-2,3,4,10,10a-pentaaza-cyclopenta[b]fluoren-9-one [Example 3/A]
